Like-named read-outs stand apart in the source and are kept apart here.
How the values were obtained:
[1] = system: DK100 (DNA, duplex) CGCGGGCCCGCG; experiment: native ESI-MS; settings: 100 mM ammonium acetate (NH4+), no K+, apparent, 10 μM DNA, 20 μM ligand, 4 °C incubation
[2] = system: rLTR4-3′Cy5 (parallel RNA G4); experiment: Ligand-induced fluorescence quenching assay (FQA), rLTR4-3′Cy5; format: binding, HIV-1
Procedure: Cy5 labelled oligonucleotides were purchased lyophilized and RP-cartridge purified from Eurogentec (Kanaka Eurogentec, Seraing, Belgium). The ligand-induced fluorescence quenching assay was conducted as previously described.[47] A Stratagene Mx3005P instrument was used to carry out the assay in 96-well plates. The filters for excitation and emission were set at 635 nm and 665 nm, respectively. The gain was used at 8×. The labeled oligonucleotide was used at 10 nM, and the buffer was 10 mM lithium cacodylate (pH 7.2), 10 mM KCl, and 90 mM LiCl in a final volume of 50 μL. The oligonucleotide was heated at 90 °C for 5 min and put in ice to anneal. The ligand was added over a range of concentrations between 0 and 80 μM. A competitor, ds26, was also added at 3 or 10 μM. Each experimental condition was tested in triplicate except for the ligand alone with the buffer, which was tested in duplicate. The instrument was programmed to heat the plate for 10 min at 25 °C and measure the fluorescence after 1 min for 5 cycles. The fluorescence of each sample was normalized, and the fluorescence of the ligand alone was subtracted.
We then addressed the binding of the DBA series to the rLTR4 RNA G4. The FRET melting assay was not appropriate for investigating ligand binding to this RNAs due to its high thermal stability (Tm > 72 °C).[26] We have therefore used a ligand-induced fluorescence quenching assay (FQA) to analyse the interaction of the DBAs with either 5′ or 3′ fluorescently labelled RNAs (Fig. S8). Since planar G4-ligands generally stack on an accessible G-quartet,[94–96] we expect the DBAs to also recognize G4s by stacking interactions. To conduct a fluorescence quenching experiment, a CY5 fluorophore is attached on the 3′ or 5′ end of the RNA. […] Thus, upon interaction of the ligand with the G-quartet, the ligand induces the quenching of the fluorescence emission. This test enables determination of the apparent association constants (Ka) of each DBA with the 5′ or 3′ quartet of the G4 structure (Fig. 4, Table S3). […] A similar difference in G-tetrad binding affinities has previously been observed for TMPyP4 and PhenDC3.[47]
The fluorescently labeled oligonucleotides were dissolved at a concentration of 10 nM in 10 mM lithium cacodylate buffer (pH 7.2) with 10 mM KCl and 90 mM LiCl. […] Data are the results of at least three independent experiments in which each data point was performed in duplicate.

[3] = biological target: rLTR4 RNA G4; experiment: Native ESI-MS, rLTR4; format: binding, HIV-1; settings: 10 μM RNA, 20 μM ligand, 100 mM ammonium acetate
Procedure: (§1) Oligonucleotides were purchased lyophilized and RP-cartridge purified from Eurogentec (Kanaka Eurogentec, Seraing, Belgium), then buffer exchanged with ammonium acetate (5 M; Sigma-Aldrich, Saint-Quentin-Fallavier, France) using Amicon Ultra (3 K cut-off; Merck Millipore, Cork, Ireland). The concentrations of the initial stock solutions of DNA/RNA (∼1 mM) were measured by UV absorbance at 260 nm. Sample solutions were prepared by diluting the appropriate volume of oligonucleotide stock solutions to reach 10 μM of DNA/RNA and 20 μM of ligand, in 100 mM ammonium acetate. The solutions were incubated for 16 h at 4 °C before analysis by mass spectrometry. […] These parameters ensured a good signal intensity without disrupting noncovalent complexes, which was verified using d[G4T4G4]2 as a control. The presented spectra of all DNA/RNA used in this work (Fig. 5, S9 and S10) result from 8 min accumulations. The abundance of each species, M, M + 1L, M + 2L and M + 3L complexes, where M is a monomer oligonucleotide and L is a ligand, was determined from their peak area signals (A), from the sum of the −4, −5 and −6 charge states for DNA and from the sum of the −5, −6 and −7 charge states for RNA, assuming that their response factors are equal. The molar concentrations were then calculated knowing the total amount of oligonucleotide [M]tot: [drawing 1] [drawing 2] [drawing 3] [drawing 4] The concentration of the free ligand, [L]free, was determined from its total concentration [L]tot:[L]free = [L]tot − [M + 1L] − 2[M + 2L] − 3[M + 3L]Apparent consecutive dissociation constants (Kd1, Kd2 and Kd3) were calculated by using the following equations: [drawing 5] [drawing 6] [drawing 7]
(§2) We further analysed the formation of the DBA/G4 complexes by native electrospray ionization mass spectrometry (ESI-MS). We initially attempted to analyze DBA binding to the primary G4 targets from HIV-1 (HIVpro1, HIVpro2, LTR4 and rLTR4 RNA). […] These sequences span the major G4 topological classes and provide a representative assessment of DBA binding across diverse G4 architectures. We also included two DNA duplex controls (DK100 and DK66) to evaluate binding selectivity. This ESI-MS approach enables direct determination of binding stoichiometry, quantification of each species in solution, and calculation of dissociation constants (Kd) from the relative abundances of free and bound forms.[88,97]
(§3) In the ESI-MS conditions, the rLTR4 G4 (10 μM) forms a dimeric structure. […] Among the six DNA and RNA tested here (Fig. 5B, S9 and S10) only rLTR4 presented 1 : 3 G4/DBA complexes. In all cases but one, the 1 : 1 stoichiometry represents the major species in solution while for rLTR4 it is the 1 : 2 (green). […] For TG4T tetramolecular G4 or G4T4G4 bimolecular G4 only 1 : 1 and 1 : 2 complexes were detected (Fig. S9A and S10A). […] The weakest binding was obtained for the G4T4G4 antiparallel G4 and Htel sequence with Kd1s ranging from 11 μM for to 500 μM (Table 2).

[4] = biological target: Htel DNA G4 (human telomeric); experiment: Native ESI-MS, Htel; format: binding; settings: 10 μM DNA, 20 μM ligand, 100 mM ammonium acetate
Procedure: as §1, §2, §3

[5] = system: HeLa P4 cells; experiment: Cell viability assay (CellTiter 96 AQueous One); format: cell-based; settings: read-out: EC50 (cell viability)
[6] = system: DK66 (DNA, duplex) CGCGAATTCGCG; experiment: native ESI-MS; settings: 100 mM ammonium acetate (NH4+), no K+, apparent, 10 μM DNA, 20 μM ligand, 4 °C incubation
[7] = HeLaP4, 24 h, 24 h treatment, formazan quantification

SMILES: COc1ccc2c(ccc3c2cc2c4ccc(OC)cc4ccc2[n+]3-c2ccc([N+](=O)[O-])cc2)c1 [DBA4]
- Kd1 ([1]; site 1 of 2): 38.42 µM
- Ka rLTR4-3′Cy5 FQA ([2]; +10µM ds26): 1.9±0.1 10^5 M
- Kd ([2]; +10µM ds26): 5.3 ± 1.1 µM
- Ka rLTR4-3′Cy5 FQA ([2]; No ds26): 3.0±0.24 10^5 M
- Kd ([2]; No ds26): 3.3 ± 0.4 µM
- Kd ([3]; read-out: Kd1 rLTR4): 10.4 µM
- Kd ([3]; read-out: Kd2 rLTR4): 0.5 µM
- Kd ([3]; read-out: Kd3 rLTR4): 21.3 µM
- Kd ([4]; read-out: Kd1 Htel): 11.2 µM
- Kd ([4]; read-out: Kd2 Htel): 55.6 µM
- EC50 [5, 7]: ~15 µM
- EC50 ([5]; HeLaP4, 24 h): 15.4 µM
- Kd1 ([6]; site 1 of 2): 165.13 µM

SMILES: c1ccc(-[n+]2c3ccc4ccccc4c3cc3c4ccccc4ccc32)cc1 [DBA5]
- Kd1 ([1]; site 1 of 2): 40.04 µM
- Ka rLTR4-3′Cy5 FQA ([2]; +10µM ds26): 2.5±0.2 10^5 M
- Kd ([2]; +10µM ds26): 4 ± 0.6 µM
- Ka rLTR4-3′Cy5 FQA ([2]; No ds26): 2.5±0.31 10^5 M
- Kd ([2]; No ds26): 4 ± 0.3 µM
- Kd ([3]; read-out: Kd1 rLTR4): 4.99 µM
- Kd ([3]; read-out: Kd2 rLTR4): 10 µM
- Kd ([3]; read-out: Kd3 rLTR4): 1.47 µM
- Kd ([4]; read-out: Kd1 Htel): 14.5 µM
- Kd ([4]; read-out: Kd2 Htel): 24.7 µM
- EC50 ([5]; 24 h treatment, formazan quantification): ~15 µM
- EC50 [5, 7]: 16.7 µM
- Kd1 ([6]; site 1 of 2): 75.39 µM

SMILES: COc1ccc2c(ccc3c2cc2c4ccc(OC)cc4ccc2[n+]3-c2ccccc2)c1 [DBA1]
- Kd1 ([1]; almost no complex detected): 1027.52 µM
- Ka rLTR4-3′Cy5 FQA ([2]; +10µM ds26): 2.8±0.23 10^5 M
- Kd ([2]; +10µM ds26): 3.3 ± 0.4 µM
- Ka rLTR4-3′Cy5 FQA ([2]; No ds26): 3.1±0.2 10^5 M
- Kd ([2]; No ds26): 3.2 ± 0.5 µM
- Kd ([3]; read-out: Kd1 rLTR4): 20.2 µM
- Kd ([3]; read-out: Kd2 rLTR4): 0.55 µM
- Kd ([3]; read-out: Kd3 rLTR4): 22.8 µM
- Kd ([4]; read-out: Kd1 Htel): 497 µM
- Kd ([4]; read-out: Kd2 Htel): 103 µM
- EC50 [5, 7]: 5.2 µM
- Kd1 ([6]; almost no complex detected): 4833.59 µM

SMILES: COC(=O)c1ccc(-[n+]2c3ccc4cc(OC)ccc4c3cc3c4ccc(OC)cc4ccc32)cc1 [DBA2]
- Kd1 ([1]; almost no complex detected): 833.14 µM
- Ka rLTR4-3′Cy5 FQA ([2]; +10µM ds26): 1.2±0.08 10^5 M
- Kd ([2]; +10µM ds26): 8.6 ± 1.3 µM
- Ka rLTR4-3′Cy5 FQA ([2]; No ds26): 1.5±0.06 10^5 M
- Kd ([2]; No ds26): 6.7 ± 1.5 µM
- Kd ([3]; read-out: Kd1 rLTR4): 10.9 µM
- Kd ([3]; read-out: Kd2 rLTR4): 0.69 µM
- Kd ([4]; read-out: Kd1 Htel): 41.1 µM
- Kd ([4]; read-out: Kd2 Htel): 35.3 µM
- EC50 [5, 7]: 2.9 µM
- Kd1 ([6]; almost no complex detected): 711.55 µM

SMILES: COc1ccc(-[n+]2c3ccc4cc(OC)ccc4c3cc3c4ccc(OC)cc4ccc32)cc1 [DBA3]
- Kd1 ([1]; site 1 of 2, almost no complex): 155.63 µM
- Ka rLTR4-3′Cy5 FQA ([2]; +10µM ds26): 1.5±0.09 10^5 M
- Kd ([2]; +10µM ds26): 6.9 ± 1.1 µM
- Ka rLTR4-3′Cy5 FQA ([2]; No ds26): 1.6±0.11 10^5 M
- Kd ([2]; No ds26): 6.2 ± 1 µM
- Kd ([3]; read-out: Kd1 rLTR4): 12.2 µM
- Kd ([3]; read-out: Kd2 rLTR4): 0.14 µM
- Kd ([3]; read-out: Kd3 rLTR4): 31 µM
- Kd ([4]; read-out: Kd1 Htel): 52.4 µM
- Kd ([4]; read-out: Kd2 Htel): 27.2 µM
- EC50 [5, 7]: 4.3 µM
- Kd1 ([6]; almost no complex detected): 1071.92 µM

Reference: PMC13334477 (RSC Medicinal Chemistry, 2026)
